Experimental data taken from patent US11090304B2 (Amgen Inc., priority 2018, dated 2021).

Target: GDP-bound KRAS protein (aa 1-169), containing both G12C and C118A amino acid substitutions (Homo sapiens, UniProt P01116, C118A/G12C)
Test: Coupled nucleotide exchange assay (SOS-mediated, AlphaScreen)
Format: biochemical
Details: 5 min compound pre-incubation; for IC50: read-out: Coupled exchange IC50 (5 min)

Sequence of GDP-bound KRAS protein (aa 1-169), containing both G12C and C118A amino acid substitutions (P01116 1-169 isoform P01116-2 G12C/C118A): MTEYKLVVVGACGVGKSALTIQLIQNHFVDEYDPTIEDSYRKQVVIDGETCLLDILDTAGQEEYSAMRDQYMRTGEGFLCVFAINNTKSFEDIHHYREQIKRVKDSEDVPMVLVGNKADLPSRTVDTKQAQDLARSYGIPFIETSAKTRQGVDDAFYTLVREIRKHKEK

Structure (SMILES)	Coupled exchange IC50 (5 min)	IC50 [µM]
C=CC(=O)N1CCN(c2nc(=O)n(-c3c(OC)ncnc3C(C)C)c3nc(-c4ccccc4F)c(Cl)cc23)[C@@H](C)C1 (single isomer, unassigned) [Example 54-107-1]	0.731 | nda μM	
C=CC(=O)N1CCN(c2nc(=O)n(-c3ccccc3C(C)C)c3nc(N(C)C(C)C)c(Cl)cc23)[C@@H](C)C1 [Example 69-6, 6-chloro-7-(methyl(2-propanyl)amino)-4-((2S)-2-methyl-4-(2-propenoyl)-1-piperazinyl)-1-(2-(2-propanyl)phenyl)pyrido[2,3-d]pyrimidin-2(1H)-one]	13.7 | nda μM	
C=CC(=O)N1CCN(c2nc(=O)n(-c3ccccc3C(C)C)c3nc(-c4ncc(F)cc4F)c(Cl)cc23)[C@@H](C)C1 [Example 54-93, 6-chloro-7-(3,5-difluoro-2-pyridinyl)-4-((2S)-2-methyl-4-(2-propenoyl)-1-piperazinyl)-1-(2-(2-propanyl)phenyl)pyrido [2,3-d]pyrimidin-2(1H)-one]	1.43 | nda μM	
C=CC(=O)N1CCN(c2nc(=O)n(-c3c[nH]cc3C(C)C)c3nc(-c4ccccc4F)c(Cl)cc23)[C@@H](C)C1 [Example 54-109, 6-chloro-7-(2-fluorophenyl)-4-((2S)-2-methyl-4-(2-propenoyl)-1-piperazinyl)-1-(4-(2-propanyl)-1H-pyrrol-3-yl)pyrido[2,3-d]pyrimidin-2(1H)-one]	0.355 | nda μM	
C=CC(=O)N1CCN(c2nc(=O)n(-c3c(C)cccc3C(C)C)c3nc(-c4c(C)ccc5[nH]ncc45)c(F)cc23)[C@@H](C)C1 (single isomer, unassigned) [Example 68-2-1]	5.29 | nda μM	
C=CC(=O)N1CCN(c2nc(=O)n(-c3c(C(C)C)ncc(O)c3C)c3nc(-c4ccccc4F)c(Cl)cc23)[C@@H](C)C1 (atropisomer, axis not shown; (P)) [Example 83-1, (P)-6-Chloro-7-(2-fluorophenyl)-1-(5-hydroxy-4-methyl-2-(2-propanyl)-3-pyridinyl)-4-((2S)-2-methyl-4-(2-propenoyl)-1-piperaninyl)pyrido[2,3-d]pyrimidin-2(1H)-one]		0.548
C=CC(=O)N1CCN(c2nc(=O)n(-c3c(C)cc(CO)cc3C(C)C)c3nc(-c4ccccc4F)c(Cl)cc23)[C@@H](C)C1 (single isomer, unassigned) [Example 80-2-1]	0.824 | nda μM	
C=CC(=O)N1CCN(c2nc(=O)n(-c3c(CC)cccc3CC)c3nc(N4CCC(CC)C4)c(Cl)cc23)[C@@H](C)C1 (stereo partly drawn) [Example 66-11, 6-chloro-1-(2,6-diethylphenyl)-7-(3-ethyl-1-pyrrolidinyl)-4-((2S)-2-methyl-4-(2-propenoyl)-1-piperazinyl)pyrido[2,3-d]pyrimidin-2(1H)-one]	29 | nda μM	
C=CC(=O)N1CCN(c2nc(=O)n(-c3c(C)cccc3C(C)C)c3nc(-c4nc(N)cc5ccccc45)c(F)cc23)[C@@H](C)C1 [71-2, 7-(3-amino-1-isoquinolinyl)-6-fluoro-1-(2-methyl-6-(2-propanyl)phenyl)-4-((2S)-2-methyl-4-(2-propenoyl)-1-piperazinyl)pyrido[2,3-d]pyrimidin-2(1H)-one]	2.17 | nda μM	
C=CC(=O)N1CCN(c2nc(=O)n(-c3ccccc3C3CCC3)c3nc(-c4c(O)cccc4F)c(Cl)cc23)[C@@H](C)C1 (single isomer, unassigned) [Example 54-10-1]	1.21 | nda μM	
C=CC(=O)N1CC=C(c2cc(=O)n(CC(C)(C)C)c3nc(-c4ccccc4F)c(Cl)cc23)CC1 [Example 124, 6-Chloro-1-(2,2-dimethylpropyl)-7-(2-fluorophenyl)-4-(1-(2-propenoyl)-1,2,3,6-tetrahydro-4-pyridinyl)-1,8-naphthyridin-2(1H)-one]	6.22 | nda μM	
C=CC(=O)N1CCN(c2nc(=O)n(-c3c(C)cccc3C(C)C)c3nc(-c4nc(N)cc5ccccc45)c(F)cc23)[C@@H](C)C1 (single isomer, unassigned) [Example 71-2-2]	1.06 | nda μM	
C=CC(=O)N1CCN(c2nc(=O)n(-c3c(C4CC4)ccnc3C)c3nc(-c4c(O)cccc4F)c(F)cc23)[C@@H](C)C1 (single isomer, unassigned) [Example 58-19-1]	4.06 | nda μM	
C=CC(=O)N1C[C@H]2C[C@@H](C1)N2c1nc(=O)n(-c2c(C)ccnc2C(C)C)c2nc(-c3ccccc3F)c(Cl)cc12 (single isomer, unassigned) [Example 78-17, (M)-6-chloro-7-(2-fluorophenyl)-1-(4-methyl-2-(2-propanyl)-3-pyridinyl)-4-(3-(2-propenoyl)-3,6-diazabicyclo[3.1.1]heptan-6-yl)pyrido[2,3-d]pyrimidin-2(1H)-one]	26 | nda μM	
C=CC(=O)N1CCN(c2nc(OC)c(-c3ccccc3C)c3nc(-c4ccccc4F)c(Cl)cc23)[C@@H](C)C1 [Example 134, 1-((3S)-4-(3-Chloro-2-(2-fluorophenyl)-7-methoxy-8-(2-methylphenyl)-1,6-naphthyridin-5-yl)-3-methyl-1-piperazinyl)-2-propen-1-one]	1.95 | nda μM	
C=CC(=O)N1CC(Nc2nc(=O)n(-c3c(C)ccnc3C(C)C)c3nc(-c4ccccc4F)c(Cl)cc23)C1 (atropisomer, axis not shown; (M)) [Example 76-1, (M)-6-Chloro-7-(2-fluorophenyl)-1-(4-methyl-2-(2-propanyl)-3-pyridinyl)-4-((1-(2-propenoyl)-3-azetidinyl)amino)pyrido[2,3-d]pyrimidin-2(1H)-one]		117
C=CC(=O)N1CCN(c2nc(=O)n(-c3ccccc3C(C)C)c3nc(C4=CCCCC4)c(Cl)cc23)[C@@H](C)C1 (single isomer, unassigned) [Example 54-75-2]	10.6 | nda μM	
C=CC(=O)N1CCN(c2nc(=O)n(Cc3ccc(OC)cc3)c3nc(-c4c(O)cccc4F)c(Cl)cc23)[C@@H](C)C1 [Example 55-32, 6-chloro-7-(2-fluoro-6-hydroxyphenyl)-1-(4-methoxybenzyl)-4-((2S)-2-methyl-4-(2-propenoyl)-1-piperazinyl)pyrido[2,3-d]pyrimidin-2(1H)-one]	3.07 | nda μM	
C=CC(=O)N1CCN(c2nc(=O)n(-c3c(O)cccc3C(C)C)c3nc(-c4ccccc4F)c(Cl)cc23)[C@@H](C)C1 (single isomer, unassigned) [Example 55-26-1]	36.9 | nda μM	
C=CC(=O)N1CCN(c2nc(=O)n(-c3c(CC)cccc3CC)c3nc(N4CCOC[C@H]4C)c(Cl)cc23)[C@@H](C)C1 [Example 66-33, 6-chloro-1-(2,6-diethylphenyl)-7-((3R)-3-methyl-4-morpholinyl)-4-((2S)-2-methyl-4-(2-propenoyl)-1-piperazinyl)pyrido[2,3-d]pyrimidin-2(1H)-one]	15.9 | nda μM	
C=CC(=O)N1CCN(c2nc(=O)n(-c3c(OC)cccc3OC)c3nc(-c4ccccc4F)c(Cl)cc23)[C@@H](C)C1 [Example 54-68, 6-chloro-1-(2,6-dimethoxy-phenyl)-7-(2-fluorophenyl)-4-((2S)-2-methyl-4-(2-propenoyl)-1-piperazinyl) pyrido[2,3-d]pyrimidin-2(1H)-one]	4.65 | nda μM	
